Values after ≈ are worked out from the molar mass of the structure shown.
Legend:
Apis mellifera = details: acute; duration: 48 hours; inhalation; unspecified; mortality
Canidae = details: short-term; duration: 2 weeks; Dog Other
Cyprinodon variegatus = details: acute; duration: 96 hours; mortality
Daphnia magna = details: chronic/long-term; duration: 21 days; mortality
Mus musculus = details: chronic; duration: 2 years; inhalation; histopathology: nonneoplastic
Pimephales promelas = details: chronic/long-term; duration: 33 days; growth
Rattus norvegicus = details: for LD50: acute

SMILES: ClC=CCCl [1,3-Dichloropropene]
- NOEC (Apis mellifera): 115 mg/m3
- NOAEL (Canidae): 20 mg/kg-day
- LC50 (Cyprinodon variegatus): 0.87 µg/mL (≈ 7.84 µM)
- NOEC (Daphnia magna): 0.0701 mg/L
- NOAEL (Mus musculus): 1.1 mg/kg-day
- NOEC (Pimephales promelas): 0.032 mg/L
- LD50 (Rattus norvegicus; inhalation, mortality): 2.7 mg/L
- LD50 (Rattus norvegicus; oral, mortality): 130 mg/kg
- NOAEL (Rattus norvegicus; chronic, duration: 2 years, oral, diet, histopathology: neoplastic): 2.5 mg/kg-day
- NOAEL (Rattus norvegicus; chronic, oral, mortality): 2.5 mg/kg-day
- NOAEL (Rattus norvegicus; reproduction developmental, inhalation, reproduction): < 0.0908 mg/L
- NOAEL (Rattus norvegicus; subchronic, duration: 13 weeks, inhalation, histopathology: nonneoplastic): 9.72 mg/kg-day
- NOAEL (Rattus norvegicus; subchronic, duration: 90 days, oral, mortality): 5 mg/kg-day
- LC50 (Tagia sp.; acute, duration: 14 days, mortality): 55.6 mg/kg
- NOEC (Tagia sp.; chronic/long-term, duration: 56 days, reproduction): 770 mg/kg
